pIC50: −log10 of the molar value.

T1 sequence (Q93009 whole entry): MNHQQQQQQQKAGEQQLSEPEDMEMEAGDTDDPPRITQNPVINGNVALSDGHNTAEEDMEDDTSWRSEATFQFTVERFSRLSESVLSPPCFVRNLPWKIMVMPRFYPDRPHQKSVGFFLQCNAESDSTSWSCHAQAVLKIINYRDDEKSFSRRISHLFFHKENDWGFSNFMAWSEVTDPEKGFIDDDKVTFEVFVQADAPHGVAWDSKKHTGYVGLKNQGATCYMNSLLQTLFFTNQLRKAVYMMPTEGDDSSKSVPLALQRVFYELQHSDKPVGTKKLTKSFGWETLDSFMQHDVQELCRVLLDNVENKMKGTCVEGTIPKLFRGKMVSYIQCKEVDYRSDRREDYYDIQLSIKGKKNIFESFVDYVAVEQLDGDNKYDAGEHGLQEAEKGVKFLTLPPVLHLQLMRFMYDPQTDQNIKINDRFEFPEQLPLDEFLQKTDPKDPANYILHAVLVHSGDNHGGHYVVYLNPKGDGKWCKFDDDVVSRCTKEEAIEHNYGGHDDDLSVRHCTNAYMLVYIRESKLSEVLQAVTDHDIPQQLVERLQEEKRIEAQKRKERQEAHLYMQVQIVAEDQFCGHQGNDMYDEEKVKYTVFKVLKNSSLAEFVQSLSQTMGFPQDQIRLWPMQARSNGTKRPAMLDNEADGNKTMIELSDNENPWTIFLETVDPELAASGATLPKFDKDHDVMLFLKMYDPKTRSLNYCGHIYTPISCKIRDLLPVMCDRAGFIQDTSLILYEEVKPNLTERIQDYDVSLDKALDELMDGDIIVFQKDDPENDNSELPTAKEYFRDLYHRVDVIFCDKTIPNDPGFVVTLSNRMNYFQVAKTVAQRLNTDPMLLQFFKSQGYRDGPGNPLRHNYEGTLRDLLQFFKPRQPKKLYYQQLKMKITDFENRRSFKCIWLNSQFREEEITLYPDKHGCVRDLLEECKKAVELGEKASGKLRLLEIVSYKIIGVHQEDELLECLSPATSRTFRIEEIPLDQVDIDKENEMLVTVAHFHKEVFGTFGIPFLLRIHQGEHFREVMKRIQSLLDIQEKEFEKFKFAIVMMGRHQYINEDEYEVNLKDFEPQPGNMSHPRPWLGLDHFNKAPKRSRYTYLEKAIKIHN

The first assay addresses T1, recombinant full-length USP7 (Homo sapiens, UniProt Q93009).
T1 construct: A 25 μl reaction volume containing recombinant full-length USP7 (62 pM)
The experiment in a line: USP7-mediated ubiquitin-rhodamine cleavage assay. Type of assay: biochemical. Particulars: recombinant full-length USP7 62 pM; ubiquitin-rhodamine 100 nM; 30-minute incubation with compound, 1 hour reaction at room temperature; read-out: Potency: USP7 IC50. Put shortly: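 Rhodamine fluorescence read-out after acetic acid stop; IC50 by 4-parameter nonlinear regression. Enzyme at 62 pM, substrate ubiquitin-rhodamine 100 nM final, 1 h at room temperature in the dark, after 30 min compound preincubation. Buffer: HEPES pH 7.3, NaCl, TCEP, BSA; 1% DMSO.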
With `Cc1cc(Cl)cc(-c2ccnc3cc([C@H](C)N4C(=O)CCC4=O)sc23)c1OC1CCNCC1` [Example 1, (S)-1-(1-(7-(5-Chloro-3-methyl-2-(piperidin-4-yloxy)phenyl)thieno[3,2-b]pyridin-2-yl)ethyl)pyrrolidine-2,5-dione], the pIC50 is 5.00 to 6.00.
On the same count and under the same terms, as for `Cc1cc(Cl)cc(-c2ccnc3cc(CN4C(=O)C5CC5C4=O)sc23)c1O[C@@H]1C[C@H]2CN[C@@H]1C2` (stereo partly drawn) [Example 315, 3-[[7-[2-[[(1S,4R,5R)-3-azabicyclo[2.2.1]heptan-5-yl]oxy]-5-chloro-3-methyl-phenyl]thieno[3,2-b]pyridin-2-yl]methyl]-3-azabicyclo[3.1.0]hexane-2,4-dione], the figure is above 6.00; as for `Cc1cc(Cl)cc(-c2ccnc3cc(CO)sc23)c1OC1CCCNC1=O` (stereo not drawn) [Example 200, 3-(4-Chloro-2-(2-(hydroxymethyl)thieno[3,2-b]pyridin-7-yl)-6-methylphenoxy)piperidin-2-one], below 4.52.
`CCC(O)c1cc2nccc(-c3cc(C#N)cc(C)c3OCC3(F)CNC3)c2s1` (stereo not drawn) [Example 36, 4-((3-Fluoroazetidin-3-yl)methoxy)-3-(2-(1-hydroxypropyl)thieno[3,2-b]pyridin-7-yl)-5-methylbenzonitrile]: the pIC50 was 5.00 to 6.00.
Consider `Cc1cc(Cl)cc(-c2ccnc3cc([C@H](C)n4c(=O)ccn(C)c4=O)sc23)c1O[C@H]1CCCNC1` [Example 287, 3-[(1S)-1-[7-[5-chloro-3-methyl-2-[[(3S)-3-piperidyl]oxy]phenyl]thieno[3,2-b]pyridin-2-yl]ethyl]-1-methyl-pyrimidine-2,4-dione; 2,2,2-trifluoroacetic acid], for which the negative logarithm of the IC50 (pIC50) is above 6.00.
As to `Cc1cc(Cl)cc(-c2ccnc3cc(CN4C(=O)SC(C)(C)C4=O)sc23)c1O[C@H]1CCCNC1` [Example 295, 3-[[7-[5-chloro-3-methyl-2-[[(3S)-3-piperidyl]oxy]phenyl]thieno[3,2-b]pyridin-2-yl]methyl]-5,5-dimethyl-thiazolidine-2,4-dione; 2,2,2-trifluoroacetic acid], the pIC50 was above 6.00.
On the same count and under the same terms, under `Cc1cc(Cl)cc(-c2ccnc3cc(CO)sc23)c1OCC1(C#N)CNC1` [Example 41, 3-((4-Chloro-2-(2-(hydroxymethyl)thieno[3,2-b]pyridin-7-yl)-6-methylphenoxy)methyl)azetidine-3-carbonitrile] stands above 6.00.
Consider `Cc1cc(Cl)cc(-c2ncnc3cc(CN4C(=O)c5ccccc5C4=O)sc23)c1O[C@@H]1CNC[C@@H]1F` [Example 149, 2-((4-(5-Chloro-2-(((3R,4S)-4-fluoropyrrolidin-3-yl)oxy)-3-methylphenyl)thieno[3,2-d]pyrimidin-6-yl)methyl)isoindoline-1,3-dione], for which the pIC50 was above 6.00.
The same measure, in the same setting: under `Cc1cc(Cl)cc(-c2ccnc3cc([C@H](C)N4C(=O)CCC4=O)sc23)c1O[C@H]1CCCNC1` [Example 241, 1-((S)-1-(7-(5-Chloro-3-methyl-2-(((S)-piperidin-3-yl)oxy)phenyl)thieno[3,2-b]pyridin-2-yl)ethyl)pyrrolidine-2,5-dione] stands above 6.00.
Same read-out and setting: under `CO[C@@H]1CNC[C@@H]1Oc1c(C)cc(Cl)cc1-c1ccnc2cc(CO)sc12` [Example 66, (7-(5-Chloro-2-(((3S,4R)-4-methoxypyrrolidin-3-yl)oxy)-3-methylphenyl)thieno[3,2-b]pyridin-2-yl)methanol] stands 4.52 to 5.00.

The assay is the same for the next values; noted with them: recombinant full-length USP7 62 pM; ubiquitin-rhodamine 100 nM; 30-minute incubation, 1 hour reaction at room temperature; read-out: Potency (USP7 IC50).
As to `COC[C@@H]1CCC[N+]1(C)C1CC(Oc2c(C)cc(Cl)cc2-c2ccnc3cc(Cn4c(=O)ccn(CC(F)(F)F)c4=O)sc23)C1` (stereo partly drawn) [Example 688, 3-[[7-[5-chloro-2-[3-[(2S)-2-(methoxymethyl)-1-methyl-pyrrolidin-1-ium-1-yl]cyclobutoxy]-3-methyl-phenyl]thieno[3,2-b]pyridin-2-yl]methyl]-1-(2,2,2-trifluoroethyl)pyrimidine-2,4-dione; 2,2,2-trifluoroacetate; 2,2,2-trifluoroacetic acid], the pIC50 is above 6.00.
On the same count and under the same terms, under `COC1CCC(Oc2c(C)cc(Cl)cc2-c2ccnc3cc(Cn4c(=O)ccn(CC(F)(F)F)c4=O)sc23)CC1` (stereo not drawn) [Example 674, 3-[[7-[5-chloro-2-(4-methoxycyclohexoxy)-3-methyl-phenyl]thieno[3,2-b]pyridin-2-yl]methyl]-1-(2,2,2-trifluoroethyl)pyrimidine-2,4-dione] stands above 6.00; under `Cc1cc(Cl)cc(-c2ccnc3cc(Cn4c(=O)ccn(CC(F)(F)F)c4=O)sc23)c1O[C@H]1C[C@@H]2NCCO[C@H]2C1` [Example 694, 3-[[7-[2-[[(4aS,6S,7aS)-2,3,4,4a,5,6,7,7a-octahydrocyclopenta[b][1,4]oxazin-6-yl]oxy]-5-chloro-3-methyl-phenyl]thieno[3,2-b]pyridin-2-yl]methyl]-1-(2,2,2-trifluoroethyl)pyrimidine-2,4-dione], above 6.00.

The same assay, now with this note: recombinant full-length USP7 62 pM; ubiquitin-rhodamine 100 nM; 30-minute pre-incubation, 1 hour reaction at room temperature; read-out: Potency (USP7 IC50).
Consider `Cc1cc(Cl)cc(-c2ccnc3cc(Cn4c(=O)ccn(C)c4=O)sc23)c1OC1CC2CNC1C2` (stereo not drawn) [Example 418], for which the pIC50 is above 6.00.
Take `Cc1cc(Cl)cc(-c2ccnc3cc(Cn4c(=O)ccn(C)c4=O)sc23)c1O[C@H]1CNCC[C@H]1C` [Example 588, 3-[[7-[5-chloro-3-methyl-2-[[(3R,4R)-4-methyl-3-piperidyl]oxy]phenyl]thieno[3,2-b]pyridin-2-yl]methyl]-1-methyl-pyrimidine-2,4-dione; 2,2,2-trifluoroacetic acid]: the negative logarithm of the IC50 (pIC50) is above 6.00.
On to `Cc1cc(Cl)cc(-c2ccnc3cc(Cn4c(=O)ccn(C)c4=O)sc23)c1OC1CCCN(C)C1` (stereo not drawn) [Example 503, 3-[[7-[5-chloro-3-methyl-2-[(1-methyl-3-piperidyl)oxy]phenyl]thieno[3,2-b]pyridin-2-yl]methyl]-1-methyl-pyrimidine-2,4-dione], for which the pIC50 is above 6.00.
With `Cc1cc(Cl)cc(-c2ccnc3cc(Cn4c(=O)ccn(C)c4=O)sc23)c1O[C@@H]1CNCC[C@@H]1F` [Example 570, 3-[[7-[5-chloro-2-[[(3R,4S)-4-fluoro-3-piperidyl]oxy]-3-methyl-phenyl]thieno[3,2-b]pyridin-2-yl]methyl]-1-methyl-pyrimidine-2,4-dione], the pIC50 was above 6.00.
Same read-out and setting: as for `Cc1cc(Cl)cc(-c2ncnc3cc(Cn4c(=O)ccn(C(C)C)c4=O)sc23)c1O[C@H]1CCCN(C)C1` [Example 512, 3-[[4-[5-chloro-3-methyl-2-[[(3S)-1-methyl-3-piperidyl]oxy]phenyl]thieno[3,2-d]pyrimidin-6-yl]methyl]-1-isopropyl-pyrimidine-2,4-dione], the figure is above 6.00.
Regarding `Cc1cc(Cl)cc(-c2ncnc3cc(Cn4c(=O)ccn(CC(F)(F)F)c4=O)sc23)c1O[C@@H]1CCN(C)C[C@@H]1C` [Example 528, 3-[[4-[5-chloro-2-[[(3S,4R)-1,3-dimethyl-4-piperidyl]oxy]-3-methyl-phenyl]thieno[3,2-d]pyrimidin-6-yl]methyl]-1-(2,2,2-trifluoroethyl)pyrimidine-2,4-dione], the pIC50 is above 6.00.
Same read-out and setting: under `Cc1cc(Cl)cc(-c2ncnc3cc(Cn4c(=O)ccn(CC(F)(F)F)c4=O)sc23)c1O[C@H]1CCCNC1` [Example 517] stands above 6.00; under `Cc1cc(Cl)cc(-c2ccnc3cc(Cn4c(=O)ccn(CC(F)(F)F)c4=O)sc23)c1OC1CC2CNC1C2` (stereo not drawn) [Example 535, 3-[[7-[2-(3-azabicyclo[2.2.1]heptan-5-yloxy)-5-chloro-3-methyl-phenyl]thieno[3,2-b]pyridin-2-yl]methyl]-1-(2,2,2-trifluoroethyl)pyrimidine-2,4-dione], above 6.00.

Values taken from patent US10722514B2 (FLX Bio, Inc., priority 2017, dated 2020).
